Reference: patent US20260092071A1, “COMPOUNDS AND COMPOSITIONS AS SMARCA2/4 DEGRADERS AND USES THEREOF” (REGENTS OF THE UNIVERSITY OF MICHIGAN, priority 2022, published 2026)

How the values were obtained:
[1] = target: SMARCA4 (Homo sapiens, UniProt P51532); experiment: HiBit assay in engineered HT1080 CRISPR knock-in cell, 6 hrs (B series), SMARCA4; assay type: cell-based; conditions: 6 hrs incubation; for DC50: HT1080 CRISPR knock-in cells, read-out: SMARC A4 HT1080 HiBit DC50; for Dmax: HT-1080, HT1080 CRISPR knock-in cells, read-out: SMARC A4 HT1080 HiBit Dmax(%)
Sequence of SMARCA4 (P51532 whole entry): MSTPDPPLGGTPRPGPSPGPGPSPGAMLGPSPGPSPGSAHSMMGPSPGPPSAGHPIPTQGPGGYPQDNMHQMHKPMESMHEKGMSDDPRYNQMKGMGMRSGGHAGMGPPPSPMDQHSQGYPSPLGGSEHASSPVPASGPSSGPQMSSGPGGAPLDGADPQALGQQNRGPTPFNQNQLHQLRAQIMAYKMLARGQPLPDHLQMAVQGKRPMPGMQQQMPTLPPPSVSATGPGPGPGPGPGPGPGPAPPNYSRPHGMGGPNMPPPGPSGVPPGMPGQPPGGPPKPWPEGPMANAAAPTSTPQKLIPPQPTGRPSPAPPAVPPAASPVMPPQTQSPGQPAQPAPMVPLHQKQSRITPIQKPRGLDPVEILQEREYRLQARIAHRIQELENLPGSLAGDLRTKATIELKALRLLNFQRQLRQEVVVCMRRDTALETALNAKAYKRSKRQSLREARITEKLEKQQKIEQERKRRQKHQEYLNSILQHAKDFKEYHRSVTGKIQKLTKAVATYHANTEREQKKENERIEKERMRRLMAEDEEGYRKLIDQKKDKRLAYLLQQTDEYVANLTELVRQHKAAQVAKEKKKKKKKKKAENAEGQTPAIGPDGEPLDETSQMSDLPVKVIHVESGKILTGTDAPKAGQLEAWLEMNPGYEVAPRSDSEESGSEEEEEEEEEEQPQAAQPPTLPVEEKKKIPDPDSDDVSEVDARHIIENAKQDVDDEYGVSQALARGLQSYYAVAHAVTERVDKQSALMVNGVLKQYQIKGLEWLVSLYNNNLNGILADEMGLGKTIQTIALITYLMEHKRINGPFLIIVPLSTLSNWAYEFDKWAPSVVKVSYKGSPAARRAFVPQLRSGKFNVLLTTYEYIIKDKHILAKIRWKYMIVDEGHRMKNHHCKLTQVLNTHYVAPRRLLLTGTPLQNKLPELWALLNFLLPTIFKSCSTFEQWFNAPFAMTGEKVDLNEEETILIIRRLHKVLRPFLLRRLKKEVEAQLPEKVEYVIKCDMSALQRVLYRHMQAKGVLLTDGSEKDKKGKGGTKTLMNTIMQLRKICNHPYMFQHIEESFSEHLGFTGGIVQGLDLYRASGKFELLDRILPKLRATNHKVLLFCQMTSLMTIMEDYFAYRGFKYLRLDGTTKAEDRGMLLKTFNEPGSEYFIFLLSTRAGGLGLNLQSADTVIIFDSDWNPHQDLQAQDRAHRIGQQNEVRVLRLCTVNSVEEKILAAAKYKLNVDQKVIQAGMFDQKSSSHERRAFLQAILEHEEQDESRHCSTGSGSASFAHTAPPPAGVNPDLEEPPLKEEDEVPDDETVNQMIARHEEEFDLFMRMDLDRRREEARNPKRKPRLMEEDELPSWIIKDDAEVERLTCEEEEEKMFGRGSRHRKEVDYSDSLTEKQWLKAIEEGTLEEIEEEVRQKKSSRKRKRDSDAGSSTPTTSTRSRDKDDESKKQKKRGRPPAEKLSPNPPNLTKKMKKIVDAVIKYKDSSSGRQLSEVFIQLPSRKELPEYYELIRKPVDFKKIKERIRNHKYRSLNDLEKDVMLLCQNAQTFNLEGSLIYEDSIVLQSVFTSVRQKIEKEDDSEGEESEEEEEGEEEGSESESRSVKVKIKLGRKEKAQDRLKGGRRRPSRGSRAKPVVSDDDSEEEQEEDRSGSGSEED
Experimental: (§1) The HiBit assay was performed using engineered HT1080 CRISPR knock-in cell utilizing the Nano-Glo HiBiT Lytic Detection System from Promega, Cat #N3040. Compounds were transferred, 25 nL DMSO or test compounds (final DMSO @ 0.1%) to intermediate plates (Corning3570) using ECHO550. Cells were seeded onto compounds at 2000 cells/25 μL/well and incubated for 6 hrs in a tissue culture incubator at 37° C. and 5% CO2. The LgBiT Protein was diluted at 1:100 and the Nano-Glo® HiBIT Lytic Substrate 1:50 into an appropriate volume of room temperature using the Nano-Glo® HiBiT Lytic Buffer. At the end of compound incubation time, 15 ul of the detection reagent was added to each well (without LgBiT for negative control wells) using the Thermo Scientific multidrop combi. The plate was shaken for 10 mins at RT using Combi. After briefly centrifugation (2000 rpm 1 mins), plate was read on Envision (Ultrasensitive luminescence model).

[2] = target: SMARCA2 (Homo sapiens, UniProt P51531); experiment: HiBit assay in engineered HT1080 CRISPR knock-in cell, 6 hrs (B series), SMARCA2; assay type: cell-based; conditions: 6 hrs incubation; for DC50: HT1080 CRISPR knock-in cells, read-out: SMARC A2 HT1080 HiBit DC50; for Dmax: HT-1080, HT1080 CRISPR knock-in cells, read-out: SMARC A2 HT1080 HiBit Dmax (%)
Sequence of SMARCA2 (P51531 whole entry): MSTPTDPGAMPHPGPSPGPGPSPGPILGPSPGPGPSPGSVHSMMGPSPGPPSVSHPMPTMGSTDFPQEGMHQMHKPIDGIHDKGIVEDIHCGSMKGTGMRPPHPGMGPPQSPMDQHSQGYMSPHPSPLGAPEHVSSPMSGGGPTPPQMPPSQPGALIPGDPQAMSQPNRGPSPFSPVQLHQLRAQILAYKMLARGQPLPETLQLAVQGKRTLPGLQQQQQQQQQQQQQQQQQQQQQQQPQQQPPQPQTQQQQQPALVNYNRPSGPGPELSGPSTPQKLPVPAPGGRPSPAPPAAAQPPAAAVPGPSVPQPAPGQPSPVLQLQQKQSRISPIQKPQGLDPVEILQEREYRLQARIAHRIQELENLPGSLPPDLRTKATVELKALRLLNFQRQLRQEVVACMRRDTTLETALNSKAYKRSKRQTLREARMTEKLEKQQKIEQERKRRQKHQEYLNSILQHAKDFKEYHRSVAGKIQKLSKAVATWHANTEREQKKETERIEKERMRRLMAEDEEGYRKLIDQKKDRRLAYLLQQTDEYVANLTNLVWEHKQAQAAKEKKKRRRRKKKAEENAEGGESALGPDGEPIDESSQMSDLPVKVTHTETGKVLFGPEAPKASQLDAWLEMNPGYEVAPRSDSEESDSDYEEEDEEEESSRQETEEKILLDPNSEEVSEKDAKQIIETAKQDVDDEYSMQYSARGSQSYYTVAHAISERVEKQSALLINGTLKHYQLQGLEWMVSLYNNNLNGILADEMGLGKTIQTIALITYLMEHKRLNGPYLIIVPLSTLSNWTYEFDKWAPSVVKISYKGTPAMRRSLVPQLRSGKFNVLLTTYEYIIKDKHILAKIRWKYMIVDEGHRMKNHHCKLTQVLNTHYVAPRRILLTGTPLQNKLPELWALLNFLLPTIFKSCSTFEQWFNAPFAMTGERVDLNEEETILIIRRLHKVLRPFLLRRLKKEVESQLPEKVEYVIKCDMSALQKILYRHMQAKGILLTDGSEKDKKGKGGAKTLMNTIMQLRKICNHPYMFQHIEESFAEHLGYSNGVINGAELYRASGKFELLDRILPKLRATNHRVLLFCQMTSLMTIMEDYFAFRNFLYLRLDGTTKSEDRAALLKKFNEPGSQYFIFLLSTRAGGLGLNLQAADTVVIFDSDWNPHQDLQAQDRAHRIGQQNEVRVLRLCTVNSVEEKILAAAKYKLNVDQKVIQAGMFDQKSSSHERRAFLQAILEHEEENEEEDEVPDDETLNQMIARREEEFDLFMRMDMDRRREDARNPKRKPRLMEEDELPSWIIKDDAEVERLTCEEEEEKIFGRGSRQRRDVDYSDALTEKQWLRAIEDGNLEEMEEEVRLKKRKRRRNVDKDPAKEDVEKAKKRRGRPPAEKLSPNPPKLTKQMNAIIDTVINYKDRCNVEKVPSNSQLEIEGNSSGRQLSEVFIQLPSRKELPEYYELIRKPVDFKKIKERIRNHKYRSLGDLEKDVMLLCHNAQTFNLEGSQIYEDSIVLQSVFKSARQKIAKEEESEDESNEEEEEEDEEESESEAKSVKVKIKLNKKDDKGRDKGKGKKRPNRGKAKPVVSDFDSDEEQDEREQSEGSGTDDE
Experimental: as §1

SMILES	DC50 [1]	Dmax [1]	DC50 [2]	Dmax [2]
Cc1ncsc1-c1ccc2c(NC(=O)[C@@H]3C[C@@H](O)CN3C(=O)[C@@H](n3cc([C@H]4CC[C@H](CN5CCC(c6ccc7c(c6)-n6c(nc(=O)c8c(Cl)cccc86)C7(C)C)CC5)CC4)nn3)C(C)(C)C)n[nH]c2c1 [Compound B148, (2S,4R)-1-((S)-2-(4-((1r,4S)-4-((4-(4-chloro-7,7-dimethyl-5-oxo-5,7-dihydroindolo[1,2-a]quinazolin-10-yl)piperidin-1-yl)methyl)cyclohexyl)-1H-1,2,3-triazol-1-yl)-3,3-dimethylbutanoyl)-4-hydroxy-N-(6-(4-methylthiazol-5-yl)-1H-indazol-3-yl)pyrrolidine-2-carboxamide]	< 100 nM	< 50%	100 to 500 nM	< 50%
Cc1ncsc1-c1ccc([C@H](C)NC(=O)C2C[C@@H](O)CN2C(=O)[C@@H](c2cc(OCCCCN3CCC(c4cccc5c4C(C)(C)c4nc(=O)c6c(Cl)cccc6n4-5)CC3)no2)C(C)C)cc1 (stereo in doubt) [Compound B98, (2S,4R)-1-(2-(3-(4-(4-(4-chloro-7,7-dimethyl-5-oxo-5,7-dihydroindolo[1,2-a]quinazolin-8-yl)piperidin-1-yl)butoxy)isoxazol-5-yl)-3-methylbutanoyl)-4-hydroxy-N-((S)-1-(4-(4-methylthiazol-5-yl)phenyl)ethyl)pyrrolidine-2-carboxamide]	100 to 500 nM	< 50%	< 100 nM	70 to 90%
Cc1ncsc1-c1ccc2c(NC(=O)[C@@H]3C[C@@H](O)CN3C(=O)[C@@H](n3cc([C@H]4CC[C@H](CN5CCC(c6ccc7c(c6)-n6c(nc(=O)c8c(Cl)cccc86)C7(C)C)CC5)CC4)nn3)C(C)(C)C)nccc2c1 [Compound B143, (2S,4R)-1-((S)-2-(4-((1r,4S)-4-((4-(4-chloro-7,7-dimethyl-5-oxo-5,7-dihydroindolo[1,2-a]quinazolin-10-yl)piperidin-1-yl)methyl)cyclohexyl)-1H-1,2,3-triazol-1-yl)-3,3-dimethylbutanoyl)-4-hydroxy-N-(6-(4-methylthiazol-5-yl)isoquinolin-1-yl)pyrrolidine-2-carboxamide]	> 1000 nM	< 50%	100 to 500 nM	70 to 90%
CC(C)[C@@H](C(=O)N1C[C@H](O)C[C@H]1C(=O)N[C@@H](C)c1ccc(-c2scnc2C#CCN2CCOCC2)cc1)n1cc([C@H]2CC[C@H](CN3CCN(c4ccc5c(c4)-n4c(nc(=O)c6c(Cl)cccc64)C5(C)C)CC3)CC2)nn1 [Compound B136, (2S,4R)-1-((S)-2-(4-((1r,4S)-4-((4-(4-chloro-7,7-dimethyl-5-oxo-5,7-dihydroindolo[1,2-a]quinazolin-10-yl)piperazin-1-yl)methyl)cyclohexyl)-1H-1,2,3-triazol-1-yl)-3-methylbutanoyl)-4-hydroxy-N-((S)-1-(4-(4-(3-morpholinoprop-1-yn-1-yl)thiazol-5-yl)phenyl)ethyl)pyrrolidine-2-carboxamide]	< 100 nM	70 to 90%	< 100 nM	> 90%
Cc1ncsc1-c1ccc([C@H](CN2CCOCC2)NC(=O)[C@@H]2C[C@@H](O)CN2C(=O)[C@@H](c2cc(O[C@H]3CC[C@H](CN4CCC(c5ccc6c(c5)-n5c(nc(=O)c7c(Cl)cccc75)C65CCCCC5)CC4)CC3)no2)C(C)C)cc1 [Compound B158, (2S,4R)-1-((R)-2-(3-(((11,4R)-4-((4-(4′-chloro-5′-oxo-5′H-spiro[cyclohexane-1,7′-indolo[1,2-a]quinazolin]-10′-yl)piperidin-1-yl)methyl)cyclohexyl)oxy)isoxazol-5-yl)-3-methylbutanoyl)-4-hydroxy-N-((R)-1-(4-(4-methylthiazol-5-yl)phenyl)-2-morpholinoethyl)pyrrolidine-2-carboxamide]	< 100 nM	> 90%	< 100 nM	> 90%

Further lines, results first:

DC50 [1]	Dmax [1]	DC50 [2]	Dmax [2]	SMILES
> 1000 nM	< 50%	100 to 500 nM	50 to 69%	Cc1ncsc1-c1ccc([C@H](C)NC(=O)[C@@H]2C[C@@H](O)CN2C(=O)[C@@H](c2cc(OCCCn3cc(-c4ccc5c(c4)C(C)(C)c4nc(=O)c6c(Cl)cccc6n4-5)cn3)no2)C(C)C)cc1 [Compound B71, (2S,4R)-1-((R)-2-(3-(3-(4-(4-chloro-7,7-dimethyl-5-oxo-5,7-dihydroindolo[1,2-a]quinazolin-9-yl)-1H-pyrazol-1-yl)propoxy)isoxazol-5-yl)-3-methylbutanoyl)-4-hydroxy-N-((S)-1-(4-(4-methylthiazol-5-yl)phenyl)ethyl)pyrrolidine-2-carboxamide]
> 1000 nM	< 50%	100 to 500 nM	< 50%	CC(C)C(C(=O)N1C[C@H](O)C[C@H]1C(=O)N[C@@H](C)c1ccc(-c2ncnn2C)cc1)c1cc(OCCN2CCC(c3ccc4c(c3)C(C)(C)c3nc(=O)c5c(Cl)cccc5n3-4)CC2)no1 (stereo partly drawn) [Compound B74, (2S,4R)-1-(2-(3-(2-(4-(4-chloro-7,7-dimethyl-5-oxo-5,7-dihydroindolo[1,2-a]quinazolin-9-yl)piperidin-1-yl)ethoxy)isoxazol-5-yl)-3-methylbutanoyl)-4-hydroxy-N-((S)-1-(4-(1-methyl-1H-1,2,4-triazol-5-yl)phenyl)ethyl)pyrrolidine-2-carboxamide]
< 100 nM	70 to 90%	< 100 nM	> 90%	Cc1ncsc1-c1ccc([C@H](C)NC(=O)[C@@H]2C[C@@H](O)CN2C(=O)C(c2cc(CN3CCC(c4ccc5c(c4)C(C)(C)c4nc(=O)c6c(Cl)cccc6n4-5)CC3)no2)C(C)C)cc1 (stereo partly drawn) [Compound B8, (2S,4R)-1-(2-(3-((4-(4-chloro-7,7-dimethyl-5-oxo-5,7-dihydroindolo[1,2-a]quinazolin-9-yl)piperidin-1-yl)methyl)isoxazol-5-yl)-3-methylbutanoyl)-4-hydroxy-N—((S)-1-(4-(4-methylthiazol-5-yl)phenyl)ethyl)pyrrolidine-2-carboxamide]
< 100 nM	> 90%	< 100 nM	> 90%	Cc1ncsc1-c1ccc([C@H](CCCCCN2CCC(c3ccc4c(c3)C(C)(C)c3nc(=O)c5c(Cl)cccc5n3-4)CC2)NC(=O)[C@@H]2C[C@@H](O)CN2C(=O)[C@@H](NC(=O)C2(F)CC2)C(C)(C)C)cc1 [Compound B7, (2S,4R)—N—((S)-6-(4-(4-chloro-7,7-dimethyl-5-oxo-5,7-dihydroindolo[1,2-a]quinazolin-9-yl)piperidin-1-yl)-1-(4-(4-methylthiazol-5-yl)phenyl)hexyl)-1-((S)-2-(1-fluorocyclopropane-1-carboxamido)-3,3-dimethylbutanoyl)-4-hydroxypyrrolidine-2-carboxamide]
< 100 nM	> 90%	< 100 nM	> 90%	Cc1ncsc1-c1ccc([C@H](C)NC(=O)[C@@H]2C[C@@H](O)CN2C(=O)[C@@H](n2cc(-c3cccc(CN4CCC(c5ccc6c(c5)-n5c(nc(=O)c7c(Cl)cccc75)C6(C)C)CC4)c3)nn2)C(C)(C)C)cc1 [Compound B119, (2S,4R)-1-((S)-2-(4-(3-((4-(4-chloro-7,7-dimethyl-5-oxo-5,7-dihydroindolo[1,2-a]quinazolin-10-yl)piperidin-1-yl)methyl)phenyl)-1H-1,2,3-triazol-1-yl)-3,3-dimethylbutanoyl)-4-hydroxy-N-((S)-1-(4-(4-methylthiazol-5-yl)phenyl)ethyl)pyrrolidine-2-carboxamide]
